The source of these data is US8242102B2, “Quinoline compounds suitable for treating disorders that respond to modulation of the serotonin 5-HT6 receptor” (Abbott GmbH & Co. KG, priority 2007, dated 2012).

For orientation: Ki means the dissociation constant of the complex between target and ligand, obtained from inhibition or displacement. A word on the Kd: it is a measure of binding affinity in units of concentration.

Where a name gives a salt, the structure may show the parent alone.

T1 sequence (P50406 whole entry): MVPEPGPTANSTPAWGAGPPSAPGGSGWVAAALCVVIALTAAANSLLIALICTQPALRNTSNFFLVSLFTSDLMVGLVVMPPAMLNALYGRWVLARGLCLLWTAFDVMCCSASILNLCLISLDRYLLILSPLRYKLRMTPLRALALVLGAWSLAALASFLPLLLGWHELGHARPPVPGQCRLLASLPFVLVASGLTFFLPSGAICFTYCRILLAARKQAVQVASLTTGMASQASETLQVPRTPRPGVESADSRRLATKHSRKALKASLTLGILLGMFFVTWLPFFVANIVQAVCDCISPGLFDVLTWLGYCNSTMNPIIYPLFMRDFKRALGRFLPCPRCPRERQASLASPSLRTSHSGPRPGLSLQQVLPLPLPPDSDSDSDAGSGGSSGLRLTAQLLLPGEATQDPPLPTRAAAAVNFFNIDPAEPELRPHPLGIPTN
T2 sequence (P14416 whole entry): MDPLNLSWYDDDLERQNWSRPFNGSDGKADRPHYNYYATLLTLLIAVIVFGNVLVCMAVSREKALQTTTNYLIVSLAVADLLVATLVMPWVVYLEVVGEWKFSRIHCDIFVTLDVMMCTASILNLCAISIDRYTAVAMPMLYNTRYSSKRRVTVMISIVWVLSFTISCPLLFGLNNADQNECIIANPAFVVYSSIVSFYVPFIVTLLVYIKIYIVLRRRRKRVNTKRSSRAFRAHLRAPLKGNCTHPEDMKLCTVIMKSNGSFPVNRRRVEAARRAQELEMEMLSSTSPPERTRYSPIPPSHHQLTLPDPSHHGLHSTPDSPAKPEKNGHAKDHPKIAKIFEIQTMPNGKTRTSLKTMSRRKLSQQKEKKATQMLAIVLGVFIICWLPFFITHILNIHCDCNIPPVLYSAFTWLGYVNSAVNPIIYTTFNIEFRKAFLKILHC

The first assay addresses T1, h-5-HT6 receptor (Homo sapiens, UniProt P50406).
T1 construct: expressed in transfected cells; host or cells: HEK293
The assay is described as follows: 5-HT6 receptor binding assay, displacement of [3H]-LSD. Conditions: membranes of HEK293 cells expressing h-5-HT6, 1 nM [3H]-LSD. As for the experimental part:
Displacement of Radioligands Binding to the Following Cloned Human Receptors
(§1) 1. Preparation of Membranes by Ultrasonic Treatment and Differential Centrifugation
Cells from stable clonal cell lines expressing the corresponding receptor (5-HT6, 1-adrenergic, dopamine D2 or histamine H1 receptors) were washed with PBS (w/o Ca^++, Mg^++) and harvested in PBS with 0.02% EDTA. The cells were collected by centrifugation at 500 g for 10 min. at 4° C., washed with PBS and centrifuged (500 g, 10 min. 4° C.). The pellets were stored at −80° C. until use. For membrane preparation, the thawed cell pellet was resuspended in ice-cold sucrose buffer (0.25 M sucrose, 10 mM Hepes (pH 7.4), 1 mM Phenylmethylsulfonyl fluoride (PMSF) in DMSO, […] Pepstatin-A, 3 mM EDTA, 0.025% Bacitracin) and homogenized with a Branson Sonifier W-250 (Settings: Timer 4; Output Control 3; Duty Cycle constant; 2 to 3 cycles). Cell disruption was checked with the aid of a microscope. Remaining unbroken cells were pelleted at 1,000 g for 10 min. at 4° C. The sucrose buffer supernatant was then centrifuged at 60,000 g for 1 h at 4° C. (Beckman Ultrazentrifuge XL 80). The pellet was resuspended in 30 ml ice-cold Tris buffer (20 mM TRIS (pH 7.4), […] Pepstatin A, 0.1 mM PMSF, 3 mM EDTA) by pipetting through a 10 ml serological pipet and centrifuged for 1 h at 4° C. at 60,000 g. A final resuspension was performed in a small volume of ice-cold Tris buffer (see above) by pressing through a serological pipet followed by ultrasonic treatment with a Branson Sonifier W-250 (Settings: Timer 1; Output Control 3; Duty Cycle constant; 1 cycle). Protein concentration was determined (BCA-Kit; Pierce) and aliquots stored at −80° C. or in liquid nitrogen for long-term storage.
(§2) 2. Receptor Binding Experiments
All receptor binding experiments were carried out in the corresponding assay buffer in a total volume of 200 μl in the presence of various concentrations of test compound (10^−5 M to 10^−9 M, tenfold serial dilution, duplicate determinations). The assays were terminated by filtration on polyethylenimine (PEI 0.1% or 0.3%) presoaked Packard Unifilter Plates (GF/C or GF/B) with a Tomtec MachIII U 96 well-plate harvester. After the plates had been dried for 2 h at 55° C. in a drying chamber scintillation cocktail (BetaPlate Scint; PerkinElmer) was added. Radioactivity was measured in a Microbeta Trilux two hours after the addition of the scintillation mixture. Data derived from liquid scintillation counting were analysed by iterative non-linear regression analysis with the use of the Statistical Analysis System (SAS): a program similar to “LIGAND” as described by Munson and Rodbard (Analytical Biochemistry 107, 220-239 (1980).
a) 5-HT6 Receptor Binding Assay
HEK293 cells stably expressing the h-5-HT6 receptor (NCBI Reference Sequence XM 001435) were cultured in RPMI1640 medium supplemented with 25 mM HEPES, 10% fetal calf serum and 1-2 mM glutamine. The membrane preparation was performed as described in section 1. […] Non-specific binding was defined with 1 μM methiothepin. The binding reaction was carried out for 3.5 h at room temperature. During the incubation, the plates were shaken on a plate shaker at 100 rpm and terminated by filtration on Packard Unifilter GF/C (0.1% PEI) plates, followed by 2 wash cycles with ice-cold 50 mM Tris-HCl, 5 mM CaCl2.
Data derived from liquid scintillation counting were analyzed by iterative non-linear regression analysis with the use of the Statistical Analysis System (SAS): a program similar to “LIGAND” as described by Munson and Rodbard (Anal. Biochem. 1980, 107, 220-239). Fitting was performed according to formulae described by Feldman (Anal. Biochem. 1972, 48, 317-338). IC50, nH and Ki values were expressed as geometrical mean.
As to `O=S(=O)(c1ccccc1)c1cnc2c(C3CNC3)cccc2c1` [Example 1, 8-(Azetidin-3-yl)-3-(phenylsulfonyl)quinoline hydrochloride], the Ki is below 100 nM.

In turn, `O=S(=O)(c1ccccc1)c1cnc2c(C3CCNCC3)cccc2c1` [Example 2, 3-(Phenylsulfonyl)-8-(piperidin-4-yl)quinoline hydrochloride] came in with an inhibitory constant (Ki) below 100 nM.

`O=S(=O)(c1ccccc1)c1cnc2c(C3CCN(Cc4ccccc4)C3)cccc2c1` (centres unmarked) [Example 3, 8-(1-Benzylpyrrolidin-3-yl)-3-(phenylsulfonyl)quinoline] displayed a Ki above 1000 nM.

Consider `O=S(=O)(c1cccc(C(F)(F)F)c1)c1cnc2c(C3CCNCC3)cccc2c1` [Example 4, 8-(Piperidin-4-yl)-3-(3-(trifluoromethyl)phenylsulfonyl)quinoline], for which the Ki is below 100 nM.

Regarding `O=S(=O)(c1ccc(F)cc1)c1cnc2c(C3CCNCC3)cccc2c1` [Example 5, 3-(4-Fluorophenylsulfonyl)-8-(piperidin-4-yl)quinoline], the inhibition constant Ki was below 100 nM.

For the compound `O=S(=O)(c1cccc(Br)c1)c1cnc2c(C3CCNCC3)cccc2c1` [Example 6, 3-(3-Bromophenylsulfonyl)-8-(piperidin-4-yl)quinoline], the inhibition constant Ki is below 100 nM.

`O=S(=O)(c1cccc(N2CCCC2)c1)c1cnc2c(C3CCNCC3)cccc2c1` [Example 7, 8-(Piperidin-4-yl)-3-(3-(pyrrolidin-1-yl)phenylsulfonyl)quinoline]: the Ki is below 100 nM.

Another assay has as its target T2, dopamine D2 receptor (Homo sapiens, UniProt P14416).
T2 construct: expressed in transfected cells; host or cells: HEK293
In words: Dopamine D2 receptor binding assay, displacement of [125I]-iodospiperone. The following applies: saturation binding, HEK293 dopamine D2 membranes; read-out: KD of radioligand. The protocol: as §1
The pellets were stored at −80° C. until use. […] (Beckman Ultrazentrifuge XL 80).
as §2
a) Dopamine D2 Receptor Binding Assay
Non-specific binding was defined with 1 μM haloperidol.
For iodospiperone [[^125I]-iodospiperone], the dissociation constant Kd is 0.22 nM.
